Results: the OligoGym collection
Values joined by “and” are separate entries in the source; they are usually repeats but may differ in a detail not shown here. Equal values may be shown once. After the bases stand the sugars from the 5' end (letter, count) and the backbone: PS all phosphorothioate, else s phosphorothioate and o phosphodiester by linkage. Methylation of C is not given here. e = 2'-O-(2-methoxyethyl) (MOE); k = constrained ethyl (cEt); d = 2'-deoxy (DNA)

Molecular target: IRF4
Settings: ASO

| Sequence | target mRNA inhibition (MM.1R, 1 µM) | target mRNA inhibition (SK-MEL-28, 4 µM) | further results |
| --- | --- | --- | --- |
| CAGTTGTAAATGAGTC (sugars kddddddddddkekek, PS) | 65% |  | target mRNA inhibition (H929, 0.00067 µM): 16%; target mRNA inhibition (H929, 0.002 µM): 25%; target mRNA inhibition (H929, 0.00667 µM): 52%; target mRNA inhibition (H929, 0.02 µM): 68%; target mRNA inhibition (H929, 0.04 µM): 38%; target mRNA inhibition (KMS11, 0.2 µM): 77% and 89%; target mRNA inhibition (MM.1R, 0.074 µM): 18%; target mRNA inhibition (MM.1R, 0.222 µM): 44%; target mRNA inhibition (MM.1R, 0.666 µM): 63%; target mRNA inhibition (MM.1R, 2 µM): 85% |
| CAAGCAGTGATGTCAG (sugars kkdddddddddekeke, PS) | 26% and 34% |  |  |
| GGTAAGATCTCCATGG (sugars k3 d10 k3, PS) |  | 45% |  |
| TGGCAGTGGAGCTCCA (sugars k3 d10 k3, PS) |  | 46% |  |
| CAGCAACTCCCTTGGG (sugars k3 d10 k3, PS) |  | 23% |  |
| CTATAGTGTTCCAGGA (sugars kddddddddddkekek, PS) | 34% |  |  |
| ACTGGATATGTGGTGT (sugars k3 d10 k3, PS) | 10% |  |  |
| GTTGAACCCATCTTGA (sugars k3 d10 k3, PS) |  | 16% |  |
| TATATGACGACTTAAG (sugars k3 d10 k3, PS) |  | 30% |  |
| GTGAAGCATCCTTTCC (sugars k3 d10 k3, PS) |  | 63% |  |
| ACTTACACCCAGAAGT (sugars k3 d10 k3, PS) |  | -10% |  |
| GCTCATGTTTTTTGAC (sugars k3 d10 k3, PS) |  | 56% |  |
| CTTGAAAAGCCAATGC (sugars k3 d10 k3, PS) |  | 58% |  |
| ACCCACATAACTCAGG (sugars k3 d10 k3, PS) |  | 31% |  |
| CCTGGGACTCAGGTGG (sugars k3 d10 k3, PS) |  | 59% | target mRNA inhibition (MM.1R, 0.074 µM): 6%; target mRNA inhibition (MM.1R, 0.222 µM): -6%; target mRNA inhibition (MM.1R, 0.666 µM): 0%; target mRNA inhibition (MM.1R, 2 µM): 13%; target mRNA inhibition (SK-MEL-28, 0.185 µM): 9%; target mRNA inhibition (SK-MEL-28, 5 µM): 64%; target mRNA inhibition (SK-MEL-28, 15 µM): 91% |
| TAACGAGGTGCCTTAC (sugars k3 d10 k3, PS) | 13% |  |  |
| CTGACAAGAACTGCTG (sugars k3 d10 k3, PS) |  | 21% |  |
| GCTAAAGAACACTGCT (sugars k3 d10 k3, PS) |  | 3% |  |
| GAACGGAAGTTTACAC (sugars k3 d10 k3, PS) |  | 67% |  |
| AGCAGTGATGTCAGGT (sugars kkddddddddddkeke, PS) | 67% and 64% |  |  |
| CTGCAAACGACAAGTG (sugars k3 d10 k3, PS) | -18% |  |  |
| AAGCAAGTCGGTCCAC (sugars k3 d10 k3, PS) |  | 32% |  |
| GTTCCAGGAGATATTA (sugars k3 d10 k3, PS) |  | 52% |  |

| Sequence | target mRNA inhibition (MM.1R, 1 µM) | target mRNA inhibition (SK-MEL-28, 4 µM) | further results |
| --- | --- | --- | --- |
| GACAGTGACTTGCATC (sugars kkddddddddddkeke, PS) | 25% |  |  |
| CCTACAAGCAGTCATC (sugars k3 d10 k3, PS) |  | 54% |  |
| CAAGCAGTGATGTCAG (sugars kkddddddddddkeke, PS) | 20% and 26% |  |  |
| TGATAGCTGAGCTGAT (sugars kddddddddddkekek, PS) | 22% |  |  |
| ATTATATACTGGTTGG (sugars kdddddddddkekeke, PS) | 27% |  |  |
| CTGGCACCAAAAGTAC (sugars k3 d10 k3, PS) |  | 18% |  |
| CTACACAGGCTAATCA (sugars k3 d10 k3, PS) | 4% |  |  |
| AGCTAATGAGAGCTTC (sugars k3 d10 k3, PS) |  | 17% |  |
| TCTTACTCCGCTGAGT (sugars k3 d10 k3, PS) |  | 35% |  |
| TGGTTGGCTGGTCTTT (sugars kkddddddddddkeke, PS) | 80% and 68% |  | target mRNA inhibition (MM.1R, 0.0625 µM): 41%; target mRNA inhibition (MM.1R, 0.25 µM): 56%; target mRNA inhibition (MM.1R, 4 µM): 85% |
| AGCCCCTCAGGAAATG (sugars k3 d10 k3, PS) |  | 24% |  |
| AGTTCATGTAAAGTCT (sugars kkdddddddddkdkdk, PS) | 32% and 47% |  |  |
| TGCTTGAATTCCTTGA (sugars k3 d10 k3, PS) | 23% and 25% | 67% | target mRNA inhibition (MM.1R, 0.0625 µM): -6% and -14%; target mRNA inhibition (MM.1R, 0.074 µM): 13%; target mRNA inhibition (MM.1R, 0.222 µM): 12%; target mRNA inhibition (MM.1R, 0.25 µM): 1% and -8%; target mRNA inhibition (MM.1R, 0.666 µM): 23%; target mRNA inhibition (MM.1R, 2 µM): 39%; target mRNA inhibition (MM.1R, 4 µM): 53% and 68% |
| CAGCATGACAGGGCGA (sugars k3 d10 k3, PS) |  | 56% |  |
| CCCTTAGGATAATATA (sugars k3 d10 k3, PS) |  | 49% |  |
| CCAAAGTTACATCCTA (sugars k3 d10 k3, PS) |  | 39% |  |
| TTAAACAGTGCCCAAG (sugars k3 d10 k3, PS) |  | 21% |  |
| ACTGGCATCGAGACGG (sugars k3 d10 k3, PS) |  | 79% |  |
| CACCACTATTCGAGAG (sugars k3 d10 k3, PS) |  | 48% |  |
| ACCTCAGTTTGTGAAG (sugars kdddddddddkekeke, PS) | 16% |  |  |
| TTGTGGACACTTTTAG (sugars k3 d10 k3, PS) |  | 49% |  |
| AAGAATGGCGCATAGG (sugars k3 d10 k3, PS) | 28% and 42% | 81% | target mRNA inhibition (MM.1R, 0.0625 µM): -1% and 19%; target mRNA inhibition (MM.1R, 0.25 µM): 12% and 27%; target mRNA inhibition (MM.1R, 4 µM): 55% and 66% |
| GGAAGTTTACACTGGA (sugars kkdddddddddekeke, PS) | 64% |  | target mRNA inhibition (MM.1R, 0.074 µM): 4%; target mRNA inhibition (MM.1R, 0.222 µM): 15%; target mRNA inhibition (MM.1R, 0.666 µM): 40%; target mRNA inhibition (MM.1R, 2 µM): 64% |

| Sequence | target mRNA inhibition (MM.1R, 1 µM) | target mRNA inhibition (SK-MEL-28, 4 µM) | further results |
| --- | --- | --- | --- |
| GAGGAATGAGCACTCT (sugars k3 d10 k3, PS) |  | 26% |  |
| GGTGCTCCTAAATCAC (sugars k3 d10 k3, PS) | -1% |  |  |
| GCTGCCACTGGTAACT (sugars k3 d10 k3, PS) |  | 26% |  |
| TGCTTGAGGTTTTCCT (sugars k2 d9 e3 k2, PS) | 32% |  |  |
| GTGATGTCAGGTTTTC (sugars kkdddddddddkdkdk, PS) | 27% |  |  |
| AAAGACCCCAGCTATG (sugars k3 d10 k3, PS) |  | 23% |  |
| CTACTTCAGCTACATT (sugars k3 d10 k3, PS) |  | 47% |  |
| AGGAAGTTTACTAACT (sugars k3 d10 k3, PS) |  | 58% |  |
| CTTCAGCAAAGAGGGT (sugars k3 d10 k3, PS) |  | 59% |  |
| TAGTATGAGAAACGGC (sugars kkdddddddddkdkdk, PS) | 39% |  |  |
| CTAAAACTGCGCTCTC (sugars k3 d10 k3, PS) |  | 24% |  |
| GCCGTTCCTTTTCAGA (sugars k3 d10 k3, PS) |  | 62% |  |
| TAAGGAACAAGTGTAT (sugars k3 d10 k3, PS) |  | 18% |  |
| GACAGTGACTTGCATC (sugars kdddddddddkekeke, PS) | 0% |  |  |
| ATCCATGTTGCATGGC (sugars k3 d10 k3, PS) |  | 61% |  |
| GTGGAAACGAGAACGC (sugars k3 d10 k3, PS) |  | 3% |  |
| CAATTGAAATGGAGCA (sugars k3 d10 k3, PS) |  | 26% |  |
| ATTAAAGAGTGGTACA (sugars k3 d10 k3, PS) |  | -7% |  |
| TTAAGATTTATGTTCC (sugars k3 d10 k3, PS) |  | 64% |  |
| GCCTTAATGTTCAGCT (sugars k3 d10 k3, PS) |  | 49% |  |
| TGTGAAGCATCCTTTC (sugars k3 d10 k3, PS) |  | 45% |  |
| GCACGAGGAAGCATAG (sugars k3 d10 k3, PS) |  | 58% |  |
| CAGCATAGCATTATCT (sugars k3 d10 k3, PS) |  | -51% |  |

| Sequence | target mRNA inhibition (MM.1R, 1 µM) | target mRNA inhibition (SK-MEL-28, 4 µM) | further results |
| --- | --- | --- | --- |
| ATGTGTATTACTCTTA (sugars kddddddddddkekek, PS) | 17% and 4% |  |  |
| TGTGTATTACTCTTAG (sugars k3 d10 k3, PS) | 75% and 62% |  | target mRNA inhibition (MM.1R, 0.0625 µM): 3%; target mRNA inhibition (MM.1R, 0.25 µM): 20%; target mRNA inhibition (MM.1R, 4 µM): 93% |
| TTAATCTGTCTAAACC (sugars k3 d10 k3, PS) |  | 16% |  |
| CACTAAAGACTATTAG (sugars k3 d10 k3, PS) |  | 5% |  |
| AAAAGGTTCCTGTCAC (sugars k3 d10 k3, PS) | -5% |  |  |
| CTGGACAGCCAAACAA (sugars k3 d10 k3, PS) |  | 21% |  |
| AATCACCCTGGTCACC (sugars k3 d10 k3, PS) | 1% |  |  |
| AGCAAGTGTCTAAAGT (sugars k3 d10 k3, PS) | 22% | 62% | target mRNA inhibition (MM.1R, 0.0625 µM): -1%; target mRNA inhibition (MM.1R, 0.074 µM): -8%; target mRNA inhibition (MM.1R, 0.222 µM): 6%; target mRNA inhibition (MM.1R, 0.25 µM): 12%; target mRNA inhibition (MM.1R, 0.666 µM): 11%; target mRNA inhibition (MM.1R, 2 µM): 33%; target mRNA inhibition (MM.1R, 4 µM): 51% |
| CTTTTACCCACCAAAG (sugars k3 d10 k3, PS) |  | 18% |  |
| TCTGAGCAGAACGAGG (sugars k3 d10 k3, PS) |  | 47% |  |
| GGTCTGGAAACTCCTC (sugars k4 d8 k4, PS) |  | 31% |  |
| AGAAGCACTGGCATCG (sugars k3 d10 k3, PS) |  | 37% |  |
| GTATTTGTCGAGATCA (sugars k3 d10 k3, PS) |  | 59% |  |
| TCCTGGCAGTGCTCTC (sugars k3 d10 k3, PS) |  | 60% |  |
| CTTGGTTCTCTATAGT (sugars k3 d10 k3, PS) | 27% |  |  |
| AAGCATTTTATCATCC (sugars kdddddddddkekeke, PS) | 6% |  |  |
| GAAGCACTGGCATCGA (sugars k3 d10 k3, PS) |  | 44% |  |
| GTAGTATGAGAAACGG (sugars k2 d9 e3 k2, PS) | 51% |  |  |
| CTGAATTGTTACTAAA (sugars k3 d10 k3, PS) |  | 21% |  |
| CTATGCTGAACCCCAC (sugars k3 d10 k3, PS) |  | 1% |  |
| CTGAGAGCCGAGGCCT (sugars k3 d10 k3, PS) |  | -17% |  |
